Assay results published in PubChem BioAssay AID1963867 (Molecular Pharmacology Branch, DTP, NCI, 2024).

Test system: KRAS-mutant PDC tumor spheroid with HUVEC/MSC, viability
Test: Anticancer human tumor 327498-153-R-J2-PDC patient-derived uterine carcinosarcoma cell line growth inhibition [KRAS2]
Details: for IC50: curve of first compound; for viability, T/C: stronger effect = lower value
Method in brief: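 Combination screen of spheroid viability in tumor-cell co-cultures with endothelial (HUVEC) and mesenchymal stem cell stroma. Each agent was tested in half-log dilutions, topping at clinical Cmax or at 10 microM without a known Cmax.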

[1] = second compound 0.1 µM, first compound 0.01 µM
[2] = second compound 0.1 µM, first compound 0.0316 µM
[3] = second compound 0.1 µM, first compound 0.1 µM
[4] = second compound 0.1 µM, first compound 0.316 µM
[5] = second compound 0.1 µM, first compound 1 µM
[6] = second compound 0.1 µM, first compound 3.16 µM
[7] = second compound 0.316 µM, first compound 0.01 µM
[8] = second compound 0.316 µM, first compound 0.0316 µM
[9] = second compound 0.316 µM, first compound 0.1 µM
[10] = second compound 0.316 µM, first compound 0.316 µM
[11] = second compound 0.316 µM, first compound 1 µM
[12] = second compound 0.316 µM, first compound 3.16 µM
[13] = second compound 1 µM, first compound 0.01 µM
[14] = second compound 1 µM, first compound 0.0316 µM
[15] = second compound 1 µM, first compound 0.1 µM
[16] = second compound 1 µM, first compound 0.316 µM
[17] = second compound 1 µM, first compound 1 µM
[18] = second compound 1 µM, first compound 3.16 µM
[19] = second compound 3.16 µM, first compound 0.01 µM
[20] = second compound 3.16 µM, first compound 0.0316 µM
[21] = second compound 3.16 µM, first compound 0.1 µM
[22] = second compound 3.16 µM, first compound 0.316 µM
[23] = second compound 3.16 µM, first compound 1 µM
[24] = second compound 3.16 µM, first compound 3.16 µM
[25] = second compound 10 µM, first compound 0.01 µM
[26] = second compound 10 µM, first compound 0.0316 µM
[27] = second compound 10 µM, first compound 0.1 µM
[28] = second compound 10 µM, first compound 0.316 µM
[29] = second compound 10 µM, first compound 1 µM
[30] = second compound 10 µM, first compound 3.16 µM
[31] = second compound 0.1 µM, first compound 10 µM
[32] = second compound 0.316 µM, first compound 10 µM
[33] = second compound 1 µM, first compound 10 µM
[34] = second compound 3.16 µM, first compound 10 µM
[35] = second compound 10 µM, first compound 10 µM
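Further: spheroids exposed to agents for seven days before reading.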
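Wherever viability, T/C is given: 100% = DMSO vehicle wells so lower means fewer viable cells.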

SMILES	IC50 (second compound 0.1 µM)	IC50 (second compound 0.316 µM)	IC50 (second compound 1 µM)	IC50 (second compound 3.16 µM)	IC50 (second compound 10 µM)	viability, T/C [2]	viability, T/C [3]	viability, T/C [4]	viability, T/C [5]	viability, T/C [6]	viability, T/C [8]	viability, T/C [9]	viability, T/C [10]	viability, T/C [11]	viability, T/C [12]	viability, T/C [14]	viability, T/C [15]	viability, T/C [16]	viability, T/C [17]	viability, T/C [18]	further results
CC1COCCN1c1cc(-c2ccnn2C)c2ccnc(-c3ccn[nH]3)c2n1 (stereo not given) + CNCc1ccccc1-c1csc(C(C)Nc2nc(C)nc3cc(OC)c(OC)cc23)c1	23.5 nM	17.9 nM	15 nM	< 10 nM	< 10 nM	39.5%	9.19%	5.57%	5.53%	5.04%	33.8%	11.5%	5.05%	5.87%	5.3%	26.7%	9.86%	4.09%	3.98%	1.03%	viability, T/C [1]: 80%; viability, T/C [7]: 66.6%; viability, T/C [13]: 62.9%; viability, T/C [19]: 0.09%; viability, T/C [20]: 0.07%; viability, T/C [21]: 0.05%; viability, T/C [22]: 0.71%; viability, T/C [23]: 0.03%; viability, T/C [24]: 0.13%; viability, T/C [25]: 0.13%; viability, T/C [26]: 0.13%; viability, T/C [27]: 0.13%; viability, T/C [28]: 0.12%; viability, T/C [29]: 0.12%; viability, T/C [30]: 0.21%
CC1OCC2(CCN(c3cnc(Sc4ccnc(N)c4Cl)c(N)n3)CC2)C1N (stereo not given) + CNCc1ccccc1-c1csc(C(C)Nc2nc(C)nc3cc(OC)c(OC)cc23)c1	136 nM	109 nM	100 nM	< 31.6 nM	< 31.6 nM	75.4%	52.6%	41.2%	34.2%	30.9%	61.4%	51.8%	36%	31%	28%	65.7%	50.1%	39.9%	31.9%	31.7%	viability, T/C [31]: 27.7%; viability, T/C [32]: 24.6%; viability, T/C [33]: 27.5%; viability, T/C [20]: 0.11%; viability, T/C [21]: 0.09%; viability, T/C [22]: 0.08%; viability, T/C [23]: 0.06%; viability, T/C [24]: 0.06%; viability, T/C [34]: 0.17%; viability, T/C [26]: 0.13%; viability, T/C [27]: 0.18%; viability, T/C [28]: 0.13%; viability, T/C [29]: 0.43%; viability, T/C [30]: 0.13%; viability, T/C [35]: 0.22%
CCNC(=O)CC1N=C(c2ccc(Cl)cc2)c2cc(OC)ccc2-n2c(C)nnc21 (stereo not given) + CNCc1ccccc1-c1csc(C(C)Nc2nc(C)nc3cc(OC)c(OC)cc23)c1	1390 nM	478 nM	382 nM	< 31.6 nM	< 31.6 nM	88%	76.8%	59%	55.8%	43.4%	69.5%	69.6%	53.4%	41%	36.3%	77.6%	64%	52.6%	40.3%	33.1%	viability, T/C [31]: 34%; viability, T/C [32]: 29.8%; viability, T/C [33]: 28%; viability, T/C [20]: 1.88%; viability, T/C [21]: 1.54%; viability, T/C [22]: 0.18%; viability, T/C [23]: 1.98%; viability, T/C [24]: 0.12%; viability, T/C [34]: 0.21%; viability, T/C [26]: 1.35%; viability, T/C [27]: 1.7%; viability, T/C [28]: 0.26%; viability, T/C [29]: 0.21%; viability, T/C [30]: 0.2%; viability, T/C [35]: 0.28%
Cn1nccc1Nc1nccc(-c2cc3c(s2)C(C)(C)N(CCN2CCOCC2)C3=O)n1 + CNCc1ccccc1-c1csc(C(C)Nc2nc(C)nc3cc(OC)c(OC)cc23)c1	1640 nM	1170 nM	1030 nM	< 31.6 nM	< 31.6 nM	73.9%	76.8%	64%	55.7%	43.5%	77.7%	62.6%	64.6%	50.2%	42.2%	62%	62%	58.6%	48.2%	41.3%	viability, T/C [31]: 35.9%; viability, T/C [32]: 32.5%; viability, T/C [33]: 34.1%; viability, T/C [20]: 0.13%; viability, T/C [21]: 0.11%; viability, T/C [22]: 0.1%; viability, T/C [23]: 2.37%; viability, T/C [24]: 0.1%; viability, T/C [34]: 0.18%; viability, T/C [26]: 0.14%; viability, T/C [27]: 0.68%; viability, T/C [28]: 0.13%; viability, T/C [29]: 0.38%; viability, T/C [30]: 0.22%; viability, T/C [35]: 0.23%
CC(=O)OC12COC1CC(O)C1(C)C(=O)C(O)C3=C(C)C(OC(=O)C(O)C(NC(=O)OC(C)(C)C)c4ccccc4)CC(O)(C(OC(=O)c4ccccc4)C21)C3(C)C (stereo not given) + COc1cc2nc(C)nc(NC(C)c3cc(N)cc(C(F)(F)F)c3)c2cc1OC1CCOC1	< 10 nM	< 10 nM	< 10 nM	< 10 nM	< 10 nM	6.47%	7.11%	7.15%	9.33%	13.3%	5.72%	6.66%	6.34%	9.71%	13.2%	5.99%	6.32%	6.76%	8.86%	11.6%	viability, T/C [1]: 8.2%; viability, T/C [7]: 7.68%; viability, T/C [13]: 7.84%; viability, T/C [19]: 10.3%; viability, T/C [20]: 5.59%; viability, T/C [21]: 6.6%; viability, T/C [22]: 6.36%; viability, T/C [23]: 9.6%; viability, T/C [24]: 12.6%; viability, T/C [25]: 6.87%; viability, T/C [26]: 6.05%; viability, T/C [27]: 7.37%; viability, T/C [28]: 9.15%; viability, T/C [29]: 13.1%; viability, T/C [30]: 11.8%
